System: awake Wistar rats with activated renin-angiotensin-aldosterone system
Test: In vivo assay for detecting natriuretic activity in conscious rats with activated RAAS
Parameters: Volume urine / body weight: unit not given here
Settings: 8 hours after oral administration, metabolic cages, 3 mg/kg Finerenone, 0.3 mg/kg Pecavaptan, or both combined, mean ± SD, n = 7-8; for Urinary Na+/K+ concentration ratio: calculated from urinary sodium and potassium concentrations
Description: Wistar rats (ca. 250-500 g body weight) were kept with free access to feed (Altromin) and drinking water. […] This sodium-reduced feed causes an activation of the RAAS in the animals during the 3 days run-in phase and therefore mimics a neuroendocrine activation which is characteristic for cardiorenal diseases. During the test, the animals were housed singly in metabolic cages suitable for rats of this weight class (Tecniplast Deutschland GmbH, D-82383 Hohenpeissenberg) with free access to reduced-salt feed and drinking water for up to 24 hours. At the start of the test, the substance to be tested was administered by means of gavage in a volume of 2-3 ml/kg of body weight of a suitable solvent ('Adalat Placebo': 85.8% PEG400, 5.3% glycerol, 8.9% water). Control animals received only solvent ('Adalat Placebo' or solvent in table 2 below). Controls and substance tests were carried out in parallel on the same day. Control groups and substance-dose groups each consisted of 7 to 8 animals. During the test, the urine excreted by the animals was continuously collected in a receiver on the base of the cage. The urine volume per collection time was determined separately for each animal, and the concentration of the sodium and potassium ions excreted in the urine was measured by standard methods of flame photometry by a clinical-chemical analyzer system (ADVIA 2400, Siemens). The sodium/potassium ratio was calculated on the basis of the individual urinary sodium and potassium concentrations. The measurement intervals were typically the period up to 8 hours after the start of the test (day interval) or up to 24 hours after the start of the test (day and night interval).
In this comparison, four different administrations were performed: Group A received the solvent (Adalat Placebo) only. This group serves as control group. Group B received finerenone only. It serves to detect the effect of the monotherapy with finerenone. Group C received pecavaptan only. It serves to detect the effect of the monotherapy with pecavaptan. Group D received finerenone and pecavaptan in combination. It serves to detect the effect of the combined therapy with finerenone and pecavaptan (combination according to the invention). After the treatment, the urinary volume, urinary sodium and potassium concentrations were measured. Based on this measurement the sodium/potassium ratio was calculated. Table 2: Measured data (mean values ± standard deviation [SD]) of urinary volume, urinary potassium concentration (K+), urinary sodium concentration (Na+), and the resulting urinary sodium / potassium concentration ratio from awake Wistar rats with activated renin-angiotensin-aldosterone system (n = 7-8 animals per group), which were examined according to the 'assessment of the physiological efficacy' for 8 hours after oral administration of the substances in metabolic cages.

Row | Compound | Urinary K+ concentration [mmol] | Urinary Na+ concentration [mmol] | Volume urine / body weight | Urinary Na+/K+ concentration ratio | Urinary Na+/K+ concentration ratio (listed as finerenone) | Urinary K+ concentration (listed as finerenone) | Urinary Na+ concentration (listed as finerenone) | Volume urine / body weight (listed as finerenone) | Urinary Na+/K+ concentration ratio (listed as pecavaptan) | Urinary K+ concentration (listed as pecavaptan) | Urinary Na+ concentration (listed as pecavaptan) | Volume urine / body weight (listed as pecavaptan)
1 | CCOc1ncc(C)c2c1[C@H](c1ccc(C#N)cc1OC)C(C(N)=O)=C(C)N2 [Finerenone, (S)-4-(4-cyano-2-methoxyphenyl)-5-ethoxy-2,8-dimethyl-1,4-dihydro-1,6-naphthyridin-3-carboxamide] | 0.84 ± 0.04 | 0.24 ± 0.03 | 12.069 ±0.563 | 0.283 ±0.031 | increase | no influence | increase | no influence | – | – | – | –
2 | C[C@H](O)c1nc(Cn2nc(-c3ccc(Cl)cc3)n(C[C@H](O)C(F)(F)F)c2=O)nn1-c1cccc(Cl)c1 [Pecavaptan, 5-(4-chlorophenyl)-2-({1-(3-chlorophenyl)-5-[(1S)-1-hydroxyethyl]-1H-1,2,4-triazol-3-yl}methyl)-4-[(2S)-3,3,3-trifluoro-2-hydroxypropyl]-2,4-dihydro-3H-1,2,4-triazol-3-one] | 1.35 ± 0.08 | 0.72 ± 0.11 | 80.070 ±9.661 | 0.534 ±0.074 | – | – | – | – | increased | increases | increases | increases
